Reference: US20260373132A1, “PERK INHIBITORHC-5404 IN COMBINATION WITH ANTI-PD-1 ANTIBODY AND/OR AN ANTIANGIOGENETIC AGENT FOR USE IN THE TREATMENT OF CANCER” (HIBERCELL, INC., priority 2022, published 2026)

Assays:
pPERK in Caki-1 tumors = assay: pPERK in Caki-1 tumor xenografts; type: in vivo, mouse
Procedure: (§1) Samples were put in 500 μL of Novex lysis buffer consisting of 2× Novex Tris-Glycine SDS sample buffer (ThermoFisher LC2676), 1× Phosphatase Inhibitor Cocktail III (Sigma P0044), 1× PhosphataseArrest I (Gbioscience 113P-D), 1×2-mercaptoethanol (Gibco 21985023), 1× Benzonase (EMD Millipore Corp 70746-3), and 1× Protease inhibitor cocktail tablet (Roche/Sigma 11836170001). Samples were homogenized with the Polytron and heated for 10 min at 95 °C. They were then centrifuged at max speed for 10 min and the supernatant was transferred. Protein concentrations of samples were measured using the Pierce 660 nm Protein assay kit (Thermo Scientific 22660) according to the manufacturer's instructions.
Western Blot analysis was performed on the SimpleWestern high-throughput protein analysis platform (ProteinSimple 004-650) according to manufacturer's protocol using a 12-230 kDA Separation Module (ProteinSimple SM-W004) and Total Protein Detection Module (ProteinSimple DM-TP01). Antibodies used were: (Add info for other antibodies used) pPERK (Lilly; 1:50) and PERK (Cell Signaling Technology 5683; 1:200). All protein analytes were normalized to total protein loaded on capillary. […]

[1] = tested on: human cord blood-derived MDSCs / CD3 T cells; assay: human T cell suppression assay with human cord blood-derived MDSCs; type: cell-based; conditions: 500 or 750 nM (FIG. 10A, 10C)
Procedure: Human MDSC Preparation: Fresh cord blood was obtained from NDRI (Protocol ID #RCHA4 01). Mononuclear cells were enriched from cord blood by Lymphoprep density gradient centrifugation, followed by CD34+ cell isolation using EasySep Human Cord Blood CD34 Positive selection Kit II, and the enriched CD34+ cells were cultured in a 48-well plate (BD Falcon, Bedford, MA) at 1×10^5 cells/well/ml of IMDM complete medium (IMDM supplemented with 10% FBS, 1× penicillin-streptomycin and 2 mM L-glutamax). 100 ng/ml human GM-CSF, 100 ng/ml human G-CSF and 50 ng/ml human SCF were added to the IMDM complete medium and cells were expanded for 13-14 days in a 37 °C, 5% CO2 humidified incubator and medium was refreshed on day 7. MDSC differentiation was induced by culturing the expanded CD34+ cells in a 24 well plate at 0.1-0.15×10^6 cells/well in 2 ml of IMDM complete medium supplemented with 100 ng/ml human GM-CSF, 50 ng/mL G-CSF and 30 ng/ml IL-6 for additional 6-7 days with medium changed on day 3. […]
Human T cell Suppression Assay. […] T cell proliferation was analyzed by flow cytometry. […] The labeled cells were analyzed on a BD Fortessa cytometer and data was analyzed by FlowJo. […] Data were analyzed using one-way ANOVA with multiple comparison corrected with Dunnett test. *P<0.05; **P<0.01; ***P<0.005, ****P<0.0001 (FIGS. 10A, 10B, and 10C).

[2] = tested on: 786-O xenografts progressed on axitinib; assay: growth of 786-O xenografts that progressed on axitinib; type: in vivo, mouse; conditions: single agent 30 mg/kg PO BID, 28 days after progression on axitinib (FIG. 40)
Source text: After 14 days of treatments, 77 mice bearing the largest tumors were rerandomized into four PD arms (n=8), four efficacy arms (n=10), and 5 tumors sampled on day of rerandomization as a baseline. The remaining animals were removed from study.
Despite initial responses to VEGFR-TKI therapy, tumor regrowth necessitates subsequent rounds of alternate therapies to improve patient outcomes.

[3] = tested on: ASNS, CBS and CTH in 786-O tumors; assay: ASNS, CBS and CTH in 786-O tumors; type: in vivo, mouse; conditions: HC-5404 treatment (FIG. 29)
Procedure: as §1
Western Blot analysis was performed on the SimpleWestern high-throughput protein analysis platform (ProteinSimple 004-650) according to manufacturer's protocol using a 12-230 kDA Separation Module (ProteinSimple SM-W004) and Total Protein Detection Module (ProteinSimple DM-TP01). Antibodies used were: (Add info for other antibodies used) pPERK (Lilly; 1:50) and PERK (Cell Signaling Technology 5683; 1:200). All protein analytes were normalized to total protein loaded on capillary.
The effect of HC-5404 was further validated in tumors by assessing the response of markers of in vivo PERK inhibition. […]

## Cc1cc(NC(=O)[C@H](O)c2cc(F)cc(F)c2)ccc1-c1cnc(N)c(C(=O)NC(C)C)c1 [HC-5404, (R)-2-amino-5-(4-(2-(3,5-difluorophenyl)-2-hydroxyacetamido)-2-methylphenyl)-N-isopropylnicotinamide]
pPERK in Caki-1 tumors; 30 mg/kg PO BID, seven days (FIG. 30)
  pPERK expression in Caki-1: strongly inhibited pPERK expression
pPERK in Caki-1 tumors; DC-101 study, 4 days of treatment, low signal-to-noise (FIG. 37)
  pPERK levels in Caki-1: not affected
[1]
  inhibition of T-cells by MDSCs: reduced inhibition of T-cells
[2]
  tumor growth inhibition relative to vehicle: 47%
[3]
  accumulation of ASNS, CBS and CTH: dose-dependent accumulation of ASNS, CBS and CTH
